Literature values in patent US20110091549A1, “Modulating Drug Release Rate By Controlling The Kinetics Of The pH Transition In Hydrogels” (Confluent Surgical, Inc., priority 2009, published 2011).
Where two headings read alike, the source gives them in different places.

Assays:
[1] = free base form compared with the salt form
[2] = drugs having a pKa of from about 7.4 to about 8.5

pKa [2]	SMILES	other results
7.85	O=c1[nH]c(=O)n([C@H]2C[C@H](O)[C@@H](CO)O2)cc1Br [Broxuridine]	
	CCCCN1CCCCC1C(=O)Nc1c(C)cccc1C (stereo not drawn) [Bupivacaine, bupivacaine]	aqueous solubility [1]: lower aqueous solubility; pKa (transition of the salt form into free base form): about 8.1
7.8	CN1CCN(C(c2ccccc2)c2ccc(Cl)cc2)CC1 (stereo not drawn) [Chlorcyclizine]	
	COc1cccc2c1C(=O)c1c(O)c3c(c(O)c1C2=O)C[C@@](O)(C(=O)CO)C[C@@H]3O[C@H]1C[C@H](N)[C@H](O)[C@H](C)O1 [Doxorubicin]	pKa: 8.2
7.7	CCCN(CC)C(CC)C(=O)Nc1c(C)cccc1C (stereo not drawn) [Etidocaine]	
